US20170334934A1, “Macrocyclic picolinamides as fungicides” (DOW AGROSCIENCES LLC, priority 2014, published 2017)
Read-outs that look alike come from different tables or passages of the source.

Key:
Puccinia triticina = test: Fungicidal activity: Wheat Brown Rust (PUCCRT), wheat seedlings; format: in vivo; conditions: Low Volume (121.5 g/H)
Procedure: Technical grades of materials were dissolved in acetone, which were then mixed with nine volumes of water containing 110 ppm Triton X-100. The fungicide solutions were applied onto wheat seedlings using an automated booth sprayer to run-off. All sprayed plants were allowed to air dry prior to further handling. All fungicides were evaluated using the aforementioned method for their activity vs. all target diseases, unless stated otherwise. Wheat leaf blotch and brown rust activity were also evaluated using track spray applications, in which case the fungicides were formulated as EC formulations, containing 0.1% Trycol 5941 in the spray solutions. Wheat plants (variety Yuma) were grown from seed in a greenhouse in 50% mineral soil/50% soil-less Metro mix until the first leaf was fully emerged, with 7-10 seedlings per pot. These plants were inoculated with an aqueous spore suspension of Zymoseptoria tritici either prior to or after fungicide treatments. After inoculation the plants were kept in 100% relative humidity (one day in a dark dew chamber followed by two to three days in a lighted dew chamber at 20° C.) to permit spores to germinate and infect the leaf. The plants were then transferred to a greenhouse set at 20° C. for disease to develop. When disease symptoms were fully expressed on the 1st leaves of untreated plants, infection levels were assessed on a scale of 0 to 100 percent disease severity. Percent disease control was calculated using the ratio of disease severity on treated plants relative to untreated plants. Example B: Evaluation of Fungicidal Activity: Wheat Brown Rust (Puccinia triticina; Synonym: Puccinia recondita f. sp. tritici; Bayer Code PUCCRT) Wheat plants (variety Yuma) were grown from seed in a greenhouse in 50% mineral soil/50% soil-less Metro mix until the first leaf was fully emerged, with 7-10 seedlings per pot. These plants were inoculated with an aqueous spore suspension of Puccinia triticina either prior to or after fungicide treatments. After inoculation the plants were kept in a dark dew room at 22° C. with 100% relative humidity overnight to permit spores to germinate and infect the leaf. The plants were then transferred to a greenhouse set at 24° C. for disease to develop. Fungicide formulation, application and disease assessment followed the procedures as described in the Example A.

[1] = tested on: Mycosphaerella graminicola; Anamorph: Zymoseptoria tritici; test: Fungicidal activity: Leaf Blotch of Wheat (SEPTTR), wheat seedlings; format: in vivo; conditions: Low Volume (121.5 g/H), wheat
Procedure: Example A: Evaluation of Fungicidal Activity: Leaf Blotch of Wheat (Mycosphaerella graminicola; Anamorph: Zymoseptoria tritici; Bayer Code […]) Technical grades of materials were dissolved in acetone, which were then mixed with nine volumes of water containing 110 ppm Triton X-100. The fungicide solutions were applied onto wheat seedlings using an automated booth sprayer to run-off. All sprayed plants were allowed to air dry prior to further handling. All fungicides were evaluated using the aforementioned method for their activity vs. all target diseases, unless stated otherwise. Wheat leaf blotch and brown rust activity were also evaluated using track spray applications, in which case the fungicides were formulated as EC formulations, containing 0.1% Trycol 5941 in the spray solutions. Wheat plants (variety Yuma) were grown from seed in a greenhouse in 50% mineral soil/50% soil-less Metro mix until the first leaf was fully emerged, with 7-10 seedlings per pot. These plants were inoculated with an aqueous spore suspension of Zymoseptoria tritici either prior to or after fungicide treatments. After inoculation the plants were kept in 100% relative humidity (one day in a dark dew chamber followed by two to three days in a lighted dew chamber at 20° C.) to permit spores to germinate and infect the leaf. The plants were then transferred to a greenhouse set at 20° C. for disease to develop. When disease symptoms were fully expressed on the 1st leaves of untreated plants, infection levels were assessed on a scale of 0 to 100 percent disease severity. Percent disease control was calculated using the ratio of disease severity on treated plants relative to untreated plants.

[2] = 24 h, 1 Day Protectant, read-out: PUCCRT disease control rating, 1DP
[3] = 72 h, 3 Day Curative, read-out: PUCCRT disease control rating, 3DC
[4] = 24 h, 1 Day Protectant, read-out: SEPTTR disease control rating, 1DP
[5] = 72 h, 3 Day Curative, read-out: SEPTTR disease control rating, 3DC

| SMILES | pest or weed control at 121.5 g/ha (Puccinia triticina; [2]) [%] | pest or weed control at 121.5 g/ha (Puccinia triticina; [3]) [%] | pest or weed control at 121.5 g/ha [1, 4] [%] | pest or weed control at 121.5 g/ha [1, 5] [%] |
| --- | --- | --- | --- | --- |
| COc1ccnc(C(=O)N[C@H]2CCO[C@H](Cc3ccc(F)cc3)[C@@H](Oc3ccccc3)[C@H](C)OC2=O)c1OC(C)=O [Compound 75] | > 70 | > 70 | > 70 | < 70 |
| COc1ccnc(C(=O)N[C@H]2CCO[C@H](Cc3ccc(F)cc3)[C@@H](OC(=O)C(C)C)[C@H](C)OC2=O)c1OC(C)=O [Compound 76] | > 70 | > 70 | > 70 | > 70 |
| COc1ccnc(C(=O)N[C@H]2CCO[C@H](Cc3ccc(F)cc3)[C@@H](OCC(C)C)[C@H](C)OC2=O)c1OC(C)=O [Compound 77] | > 70 | > 70 | > 70 | > 70 |
| C=CCO[C@H]1[C@H](C)OC(=O)[C@@H](NC(=O)c2nccc(OC)c2OCOC(C)=O)CCO[C@@H]1Cc1ccc(F)cc1 [Compound 78] | > 70 | > 70 | < 70 | < 70 |
| CCCO[C@H]1[C@H](C)OC(=O)[C@@H](NC(=O)c2nccc(OC)c2OCOC(C)=O)CCO[C@@H]1Cc1ccc(F)cc1 [Compound 79, ((2-(((2R,3S,4S,7S)-2-(4-fluorobenzyl)-4-methyl-6-oxo-3-propoxy-1,5-dioxonan-7-yl)carbamoyl)-4-methoxypyridin-3-yl)oxy)methyl acetate] | > 70 | > 70 | > 70 | > 70 |
| C=CCO[C@H]1[C@H](C)OC(=O)[C@@H](NC(=O)c2nccc(OC)c2OC(C)=O)CCO[C@@H]1Cc1ccc(F)cc1 [Compound 80] | < 70 | < 70 | < 70 | < 70 |
| CCCO[C@H]1[C@H](C)OC(=O)[C@@H](NC(=O)c2nccc(OC)c2OC(C)=O)CCO[C@@H]1Cc1ccc(F)cc1 [Compound 81, 2-(((2R,3S,4S,7S)-2-(4-fluorobenzyl)-4-methyl-6-oxo-3-propoxy-1,5-dioxonan-7-yl)carbamoyl)-4-methoxypyridin-3-yl acetate] | < 70 | < 70 | < 70 | < 70 |
| COc1ccnc(C(=O)N[C@H]2CCO[C@H](Cc3ccccc3)[C@@H](Oc3ccccc3)[C@H](C)OC2=O)c1OCOC(C)=O [Compound 82] | > 70 | > 70 | > 70 | > 70 |
| COc1ccnc(C(=O)N[C@H]2CCO[C@H](Cc3ccccc3)[C@@H](Oc3ccccc3)[C@H](C)OC2=O)c1OC(C)=O [Compound 83] | > 70 | > 70 | > 70 | > 70 |
| COc1ccnc(C(=O)N[C@H]2CCO[C@H](CC3CCCC3)[C@@H](Oc3ccccc3)[C@H](C)OC2=O)c1OCOC(C)=O [Compound 85] | > 70 | > 70 | > 70 | > 70 |
| COc1ccc(C[C@H]2OCC[C@H](NC(=O)c3nccc(OC)c3OCOC(C)=O)C(=O)O[C@@H](C)[C@@H]2OCC2CC2)cc1 [Compound 86] | > 70 | > 70 | > 70 | < 70 |
| COc1ccc(C[C@H]2OCC[C@H](NC(=O)c3nccc(OC)c3OCOC(C)=O)C(=O)O[C@@H](C)[C@@H]2Oc2ccccc2)cc1 [Compound 87] | > 70 | > 70 | > 70 | < 70 |
| C=C(C)CO[C@H]1[C@H](C)OC(=O)[C@@H](NC(=O)c2nccc(OC)c2OCOC(C)=O)CCO[C@@H]1CC [Compound 88] | > 70 | > 70 | < 70 | < 70 |
| CC[C@H]1OCC[C@H](NC(=O)c2nccc(OC)c2OCOC(C)=O)C(=O)O[C@@H](C)[C@@H]1OCC(C)C [Compound 89] | > 70 | > 70 | > 70 | > 70 |
| CC[C@H]1OCC[C@H](NC(=O)c2nccc(OC)c2OCOC(C)=O)C(=O)O[C@@H](C)[C@@H]1Oc1ccccc1 [Compound 90] | > 70 | > 70 | > 70 | > 70 |
| CC[C@H]1OCC[C@H](NC(=O)c2nccc(OC)c2OCOC(C)=O)C(=O)O[C@@H](C)[C@@H]1Oc1ccc(F)cc1 [Compound 91] | > 70 | > 70 | > 70 | > 70 |
| C=C(C)CO[C@H]1[C@H](C)OC(=O)[C@@H](NC(=O)c2nccc(OC)c2OC(C)=O)CCO[C@@H]1CC [Compound 92] | > 70 | > 70 | < 70 | < 70 |
| CC[C@H]1OCC[C@H](NC(=O)c2nccc(OC)c2OC(C)=O)C(=O)O[C@@H](C)[C@@H]1OCC(C)C [Compound 93] | > 70 | > 70 | > 70 | > 70 |
| CC[C@H]1OCC[C@H](NC(=O)c2nccc(OC)c2OC(C)=O)C(=O)O[C@@H](C)[C@@H]1Oc1ccccc1 [Compound 94] | > 70 | > 70 | > 70 | > 70 |
| CC[C@H]1OCC[C@H](NC(=O)c2nccc(OC)c2OC(C)=O)C(=O)O[C@@H](C)[C@@H]1OC(=O)C(C)C [Compound 95] | > 70 | > 70 | < 70 | > 70 |
| COc1ccnc(C(=O)N[C@H]2CCOC[C@@H](OCc3ccccc3)[C@H](C)OC2=O)c1OCOC(C)=O [Compound 96] | > 70 | > 70 | < 70 | > 70 |
| COc1ccnc(C(=O)N[C@H]2CCOC[C@@H](OCC(C)C)[C@H](C)OC2=O)c1OCOC(C)=O [Compound 97] | > 70 | > 70 | > 70 | > 70 |
| COc1ccnc(C(=O)N[C@H]2CCOC[C@@H](OC(=O)C(C)C)[C@H](C)OC2=O)c1OCOC(C)=O [Compound 98] | < 70 | < 70 | < 70 | < 70 |
| COc1ccnc(C(=O)N[C@H]2CCOC[C@@H](Oc3ccccc3)[C@H](C)OC2=O)c1OCOC(C)=O [Compound 99] | > 70 | > 70 | < 70 | < 70 |
| COc1ccnc(C(=O)N[C@H]2CCOC[C@@H](Oc3ccccc3)[C@H](C)OC2=O)c1OC(C)=O [Compound 100] | > 70 | > 70 | < 70 | > 70 |
